Measured values from PubChem BioAssay AID2060497 (Molecular Pharmacology Branch, DTP, NCI, 2025).
pIC50: −log10 of the molar value.

Tested on: 317291-083-R-J1-PDC complex spheroids, viability
Assay: Anticancer human tumor 317291-083-R-J1-PDC patient-derived soft tissue sarcoma cell line growth inhibition [GQUAD]
Conditions: for pIC50: curve of first compound; for viability, T/C: stronger effect = lower value
Method in brief: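 Tumor cells were grown as complex spheroids with HUVEC endothelial cells and mesenchymal stem cells as stroma. G-quadruplex stabilizers were combined with targeted agents over half-log dilutions from near the clinical Cmax, or from 10 microM.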

[1] = second compound 0.0316 µM, first compound 0.0316 µM
[2] = second compound 0.0316 µM, first compound 0.316 µM
[3] = second compound 0.1 µM, first compound 0.0316 µM
[4] = second compound 0.1 µM, first compound 0.316 µM
[5] = second compound 0.316 µM, first compound 0.0316 µM
[6] = second compound 0.316 µM, first compound 0.316 µM
[7] = second compound 1 µM, first compound 0.0316 µM
[8] = second compound 1 µM, first compound 0.316 µM
[9] = second compound 3.16 µM, first compound 0.0316 µM
[10] = second compound 3.16 µM, first compound 0.316 µM
[11] = second compound 10 µM, first compound 0.0316 µM
[12] = second compound 10 µM, first compound 0.316 µM
[13] = second compound 0.0316 µM, first compound 0.1 µM
[14] = second compound 0.0316 µM, first compound 1 µM
[15] = second compound 0.0316 µM, first compound 3.16 µM
[16] = second compound 0.0316 µM, first compound 10 µM
[17] = second compound 0.1 µM, first compound 0.1 µM
[18] = second compound 0.1 µM, first compound 1 µM
[19] = second compound 0.1 µM, first compound 3.16 µM
[20] = second compound 0.1 µM, first compound 10 µM
[21] = second compound 0.316 µM, first compound 0.1 µM
[22] = second compound 0.316 µM, first compound 1 µM
[23] = second compound 0.316 µM, first compound 3.16 µM
[24] = second compound 0.316 µM, first compound 10 µM
[25] = second compound 1 µM, first compound 0.1 µM
[26] = second compound 1 µM, first compound 1 µM
[27] = second compound 1 µM, first compound 3.16 µM
[28] = second compound 1 µM, first compound 10 µM
[29] = second compound 3.16 µM, first compound 0.1 µM
[30] = second compound 3.16 µM, first compound 1 µM
[31] = second compound 3.16 µM, first compound 3.16 µM
[32] = second compound 3.16 µM, first compound 10 µM
[33] = second compound 10 µM, first compound 0.1 µM
[34] = second compound 10 µM, first compound 1 µM
[35] = second compound 10 µM, first compound 3.16 µM
[36] = second compound 10 µM, first compound 10 µM
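Note: spheroids exposed to compounds for one week before readout.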
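Throughout, for viability, T/C: percent viability relative to DMSO vehicle wells taken as 100%.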

CCc1c2c(nc3ccc(O)cc13)-c1cc3c(c(=O)n1C2)COC(=O)[C@]3(O)CC + Cc1[nH]c2ccc(F)cc2c1-c1nc2c3cccnc3c3ncccc3c2[nH]1
pIC50 (second compound 0.0316 µM): 8.77
pIC50 (second compound 0.1 µM): 8.80
pIC50 (second compound 0.316 µM): 8.82
pIC50 (second compound 1 µM): 8.75
pIC50 (second compound 3.16 µM): 8.84
pIC50 (second compound 10 µM): > 9.00
viability, T/C (second compound 0.0316 µM, first compound 0.000999 µM): 71.4%
viability, T/C (second compound 0.0316 µM, first compound 0.00316 µM): 23.9%
viability, T/C (second compound 0.0316 µM, first compound 0.00999 µM): 12.8%
viability, T/C [1]: 8.37%
viability, T/C (second compound 0.0316 µM, first compound 0.0999 µM): 6.91%
viability, T/C [2]: 4.31%
viability, T/C (second compound 0.1 µM, first compound 0.000999 µM): 70.2%
viability, T/C (second compound 0.1 µM, first compound 0.00316 µM): 19.9%
viability, T/C (second compound 0.1 µM, first compound 0.00999 µM): 8.9%
viability, T/C [3]: 10%
viability, T/C (second compound 0.1 µM, first compound 0.0999 µM): 7.96%
viability, T/C [4]: 3.98%
viability, T/C (second compound 0.316 µM, first compound 0.000999 µM): 66.7%
viability, T/C (second compound 0.316 µM, first compound 0.00316 µM): 18.4%
viability, T/C (second compound 0.316 µM, first compound 0.00999 µM): 16.5%
viability, T/C [5]: 8.55%
viability, T/C (second compound 0.316 µM, first compound 0.0999 µM): 6.58%
viability, T/C [6]: 4.87%
viability, T/C (second compound 1 µM, first compound 0.000999 µM): 75.8%
viability, T/C (second compound 1 µM, first compound 0.00316 µM): 22.1%
viability, T/C (second compound 1 µM, first compound 0.00999 µM): 14.6%
viability, T/C [7]: 9.41%
viability, T/C (second compound 1 µM, first compound 0.0999 µM): 6.65%
viability, T/C [8]: 5.39%
viability, T/C (second compound 3.16 µM, first compound 0.000999 µM): 65.4%
viability, T/C (second compound 3.16 µM, first compound 0.00316 µM): 18.1%
viability, T/C (second compound 3.16 µM, first compound 0.00999 µM): 8.2%
viability, T/C [9]: 8.72%
viability, T/C (second compound 3.16 µM, first compound 0.0999 µM): 6.44%
viability, T/C [10]: 4.32%
viability, T/C (second compound 10 µM, first compound 0.000999 µM): 37.7%
viability, T/C (second compound 10 µM, first compound 0.00316 µM): 14.2%
viability, T/C (second compound 10 µM, first compound 0.00999 µM): 9.41%
viability, T/C [11]: 9.06%
viability, T/C (second compound 10 µM, first compound 0.0999 µM): 5.65%
viability, T/C [12]: 7.19%

CC1COCCN1c1cc(-c2ccnn2C)c2ccnc(-c3ccn[nH]3)c2n1 (stereo not drawn) + CN(C)c1ccc(Nc2c3ccc(NC(=O)CCN4CCCC4)cc3nc3cc(NC(=O)CCN4CCCC4)ccc23)cc1
pIC50 (second compound 0.0316 µM): 7.19
pIC50 (second compound 0.1 µM): 7.18
pIC50 (second compound 0.316 µM): 7.37
pIC50 (second compound 1 µM): > 7.50
pIC50 (second compound 3.16 µM): > 7.50
pIC50 (second compound 10 µM): > 7.50
viability, T/C [1]: 87.2%
viability, T/C [13]: 27.4%
viability, T/C [2]: 17%
viability, T/C [14]: 13.8%
viability, T/C [15]: 13.8%
viability, T/C [16]: 14.2%
viability, T/C [3]: 84.5%
viability, T/C [17]: 31.4%
viability, T/C [4]: 14.9%
viability, T/C [18]: 13.7%
viability, T/C [19]: 12.1%
viability, T/C [20]: 14%
viability, T/C [5]: 59.1%
viability, T/C [21]: 24.3%
viability, T/C [6]: 15.2%
viability, T/C [22]: 11.2%
viability, T/C [23]: 15.5%
viability, T/C [24]: 19.9%
viability, T/C [7]: 41.1%
viability, T/C [25]: 17%
viability, T/C [8]: 33.6%
viability, T/C [26]: 10.3%
viability, T/C [27]: 7.25%
viability, T/C [28]: 6.88%
viability, T/C [9]: 25.8%
viability, T/C [29]: 7.15%
viability, T/C [10]: 5.62%
viability, T/C [30]: 4.31%
viability, T/C [31]: 3.37%
viability, T/C [32]: 2.05%
viability, T/C [11]: 3.62%
viability, T/C [33]: 5.3%
viability, T/C [12]: 7.04%
viability, T/C [34]: 4%
viability, T/C [35]: 1.52%
viability, T/C [36]: 0.66%

CC1COCCN1c1cc(C2(S(C)(=N)=O)CC2)nc(-c2ccnc3[nH]ccc23)n1 (stereo not drawn) + Cc1[nH]c2ccc(F)cc2c1-c1nc2c3cccnc3c3ncccc3c2[nH]1
pIC50 (second compound 0.0316 µM): 5.82
pIC50 (second compound 0.1 µM): 5.88
pIC50 (second compound 0.316 µM): 5.87
pIC50 (second compound 1 µM): 5.92
pIC50 (second compound 3.16 µM): 6.10
pIC50 (second compound 10 µM): 6.21
viability, T/C [1]: 109%
viability, T/C [13]: 112%
viability, T/C [2]: 90.5%
viability, T/C [14]: 64%
viability, T/C [15]: 27.9%
viability, T/C [16]: 15.4%
viability, T/C [3]: 93.3%
viability, T/C [17]: 93.9%
viability, T/C [4]: 85.8%
viability, T/C [18]: 57.7%
viability, T/C [19]: 25.2%
viability, T/C [20]: 13.2%
viability, T/C [5]: 91.5%
viability, T/C [21]: 98.6%
viability, T/C [6]: 88.7%
viability, T/C [22]: 59%
viability, T/C [23]: 24.3%
viability, T/C [24]: 14.7%
viability, T/C [7]: 101%
viability, T/C [25]: 97.5%
viability, T/C [8]: 97.3%
viability, T/C [26]: 54.8%
viability, T/C [27]: 22.1%
viability, T/C [28]: 11.3%
viability, T/C [9]: 84%
viability, T/C [29]: 82.8%
viability, T/C [10]: 78%
viability, T/C [30]: 42.5%
viability, T/C [31]: 17.7%
viability, T/C [32]: 11%
viability, T/C [11]: 53%
viability, T/C [33]: 61.5%
viability, T/C [12]: 86.4%
viability, T/C [34]: 37.4%
viability, T/C [35]: 16.8%
viability, T/C [36]: 8.56%

CC(=O)O[C@H]1C(=O)[C@@]2(C)[C@H]([C@H](OC(=O)c3ccccc3)[C@]3(O)C[C@H](OC(=O)[C@H](O)[C@@H](NC(=O)c4ccccc4)c4ccccc4)C(C)=C1C3(C)C)[C@]1(OC(C)=O)CO[C@@H]1C[C@@H]2O + Cc1cnc(CNC(=O)c2c(=O)c3ccc(N4CCCN(C)CC4)nc3n3c2sc2ccccc23)cn1
pIC50 (second compound 0.0316 µM): > 7.50
pIC50 (second compound 0.1 µM): > 7.50
pIC50 (second compound 0.316 µM): > 7.50
pIC50 (second compound 1 µM): > 7.50
pIC50 (second compound 3.16 µM): > 7.50
pIC50 (second compound 10 µM): > 7.50
viability, T/C [1]: 29.2%
viability, T/C [13]: 14.9%
viability, T/C [2]: 8.69%
viability, T/C [14]: 9.72%
viability, T/C [15]: 11.3%
viability, T/C [16]: 9.08%
viability, T/C [3]: 25.4%
viability, T/C [17]: 8.37%
viability, T/C [4]: 11.1%
viability, T/C [18]: 8.92%
viability, T/C [19]: 10%
viability, T/C [20]: 10.2%
viability, T/C [5]: 17.5%
viability, T/C [21]: 12.3%
viability, T/C [6]: 8.21%
viability, T/C [22]: 9.2%
viability, T/C [23]: 7.36%
viability, T/C [24]: 8.93%
viability, T/C [7]: 17.8%
viability, T/C [25]: 10.5%
viability, T/C [8]: 8.43%
viability, T/C [26]: 11.4%
viability, T/C [27]: 8.77%
viability, T/C [28]: 9.02%
viability, T/C [9]: 14.3%
viability, T/C [29]: 7.98%
viability, T/C [10]: 11.2%
viability, T/C [30]: 5.02%
viability, T/C [31]: 14.6%
viability, T/C [32]: 5.59%
viability, T/C [11]: 0.22%
viability, T/C [33]: 11.5%
viability, T/C [12]: 7.59%
viability, T/C [34]: 1.49%
viability, T/C [35]: 0.95%
viability, T/C [36]: 0.58%
